Test results: patent US5607970A, “ACAT inhibitory agent” (priority 1991, dated 1997)
Read-outs that look alike come from different tables or passages of the source.

What was measured:
[1] = system: ACAT activity of small intestine epithelial cells; assay: Animal test: ACAT activity of small intestine epithelial cells after administration in feed; type: in vivo; conditions: male hamsters, 1 mg/animal/day mixed in feed
Procedure: A test substance according to the present invention was administered to hamsters (males, body weight: 100 g) at a dose of 1 mg/animal/day by mixing in the same to their feed. The ACAT activity of small intestine epithelial cells was then measured after one week and after two weeks.

[2] = biological target: T1, ACAT (AcylCoA-Cholesterolacyltransferase) (Oryctolagus cuniculus, UniProt G1SFD9); assay: ACAT inhibitory activity in test tube (method of Heider et al., [1-14C]oleylCoA, small intestine epithelium microsome fraction); type: biochemical, rabbit; conditions: read-out: Inhibitory Ratio (%)
T1 construct: from tissue; host or cells: rabbit small intestine epithelium, microsome fraction
T1 sequence (G1SFD9 1-524): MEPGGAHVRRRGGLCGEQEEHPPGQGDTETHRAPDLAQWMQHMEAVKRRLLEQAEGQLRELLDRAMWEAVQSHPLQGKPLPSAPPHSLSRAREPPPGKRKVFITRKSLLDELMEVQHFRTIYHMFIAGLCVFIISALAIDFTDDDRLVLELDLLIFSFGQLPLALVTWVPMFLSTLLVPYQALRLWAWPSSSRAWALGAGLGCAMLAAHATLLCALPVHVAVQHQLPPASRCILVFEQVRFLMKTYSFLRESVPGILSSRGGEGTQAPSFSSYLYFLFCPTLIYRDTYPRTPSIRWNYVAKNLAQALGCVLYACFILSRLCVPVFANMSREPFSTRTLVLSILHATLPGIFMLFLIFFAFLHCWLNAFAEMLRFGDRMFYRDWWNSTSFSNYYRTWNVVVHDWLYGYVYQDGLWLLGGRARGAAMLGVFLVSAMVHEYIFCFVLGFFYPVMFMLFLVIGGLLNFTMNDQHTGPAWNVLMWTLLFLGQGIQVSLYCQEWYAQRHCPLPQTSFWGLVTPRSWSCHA
Procedure: That is, a rabbit is fed a 1% cholesterol diet for 3 weeks followed by dissection and extraction of the small intestine. After peeling off the small intestine epithelium and crushing with a homogenizer, incompletely crushed solids are removed by centrifugal separation. […] After allowing the reaction to proceed for the prescribed amount of time, 7 ml of a mixture of dichloromethane: methanol (2:1) is added to the reaction mixture and thoroughly mixed. The reaction, is stopped and the dichloromethane layer is removed, after which the cholesterol oleate portion is separated from that fraction by silica gel TLC (developing solution: petroleum ether:diethyl ether=95:5). The separated portion is scraped off and the radioactivity is measured using a liquid scintillation counter to calculate ACAT activity.

[3] = Concentration 20 μg/ml, rabbit small intestine microsome ACAT
[4] = Concentration 50 μg/ml, rabbit small intestine microsome ACAT
[5] = Concentration 100 μg/ml, rabbit small intestine microsome ACAT
[6] = Concentration 150 μg/ml, rabbit small intestine microsome ACAT
[7] = Concentration 200 μg/ml, rabbit small intestine microsome ACAT

CCCCCCCCCCCCCCCC(=O)OCC(O)CO (stereo not shown) [1-palmitoylglycerol] was tested, and the “ACAT Inhibitory Ratio (%) After 1 week” value [1] was 56%, the “ACAT Inhibitory Ratio (%) After 2 weeks” value [1] was 50% and the inhibition at 20 µg/mL [2, 3] was 26%. For the same compound, the inhibition at 50 µg/mL [2, 4] was 56%, the inhibition at 100 µg/mL [2, 5] was 75% and the inhibition at 150 µg/mL [2, 6] was 86%. It also gave an inhibition at 200 µg/mL [2, 7] of 94%.

With CCCCC/C=C\C/C=C\CCCCCCCC(=O)OCC(O)CO (stereo not shown) the “ACAT Inhibitory Ratio (%) After 1 week” value [1] was 59%, the “ACAT Inhibitory Ratio (%) After 2 weeks” value [1] was 53% and the inhibition at 20 µg/mL [2, 3] was 28%. For the same compound, the inhibition at 50 µg/mL [2, 4] was 54%, the inhibition at 100 µg/mL [2, 5] was 74% and the inhibition at 150 µg/mL [2, 6] was 86%. It also gave an inhibition at 200 µg/mL [2, 7] of 93%.

For CCCCCCCC/C=C\CCCCCCCC(=O)OC(CO)CO, the “ACAT Inhibitory Ratio (%) After 1 week” value [1] was 64%, the “ACAT Inhibitory Ratio (%) After 2 weeks” value [1] was 56% and the inhibition at 20 µg/mL [2] was 32%. For the same compound, the inhibition at 50 µg/mL [2] was 62%, the inhibition at 100 µg/mL [2] was 82% and the inhibition at 150 µg/mL [2] was 94%. For the same compound, the inhibition at 200 µg/mL [2] was 100%.

With CCCCCC/C=C\CCCCCCCC(=O)OCC(O)CO (stereo not shown) [1-palmitooleylglycerol] the “ACAT Inhibitory Ratio (%) After 1 week” value [1] was 57%, the “ACAT Inhibitory Ratio (%) After 2 weeks” value [1] was 54% and the inhibition at 20 µg/mL [2, 3] was 24%. The inhibition at 50 µg/mL [2, 4] was 53%, the inhibition at 100 µg/mL [2, 5] was 72% and the inhibition at 150 µg/mL [2, 6] was 84%. It also gave an inhibition at 200 µg/mL [2, 7] of 91%.

With CC/C=C\C/C=C\C/C=C\CCCCCCCC(=O)OCC(O)CO (stereo not shown) [1-linolenoylglycerol] the “ACAT Inhibitory Ratio (%) After 1 week” value [1] was 57%, the “ACAT Inhibitory Ratio (%) After 2 weeks” value [1] was 51% and the inhibition at 20 µg/mL [2] was 25%. The inhibition at 50 µg/mL [2] was 50%, the inhibition at 100 µg/mL [2] was 76% and the inhibition at 150 µg/mL [2] was 86%. The inhibition at 200 µg/mL [2] was 92%.

For CCCCCCCC/C=C\CCCCCCCC(=O)OCC(O)CO (stereo not shown), the “ACAT Inhibitory Ratio (%) After 1 week” value [1] was 60%, the “ACAT Inhibitory Ratio (%) After 2 weeks” value [1] was 52% and the inhibition at 20 µg/mL [2] was 30%. It also gave an inhibition at 50 µg/mL [2] of 59%, an inhibition at 100 µg/mL [2] of 81% and an inhibition at 150 µg/mL [2] of 92%. The inhibition at 200 µg/mL [2] was 100%.

With CCCCCCCCCCCCCCCCCC(=O)OCC(O)CO (stereo not shown) [1-stearoylglycerol] the “ACAT Inhibitory Ratio (%) After 1 week” value [1] was 31%, the “ACAT Inhibitory Ratio (%) After 2 weeks” value [1] was 29% and the inhibition at 20 µg/mL [2] was 15%. It also gave an inhibition at 50 µg/mL [2] of 29%, an inhibition at 100 µg/mL [2] of 38% and an inhibition at 150 µg/mL [2] of 45%. It also gave an inhibition at 200 µg/mL [2] of 49%.
